Test results from ChEMBL document CHEMBL1201862, “PubChem BioAssay data set” (2004).
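In this assay, cells in 96-well plates receive the compound at five concentrations for 48 hours. Endpoints are linearly interpolated between the surrounding concentrations. Abbreviation: GI50, concentration required for 50% inhibition of growth.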 Calls of active or inactive are those of the source. Rule as the data show it: active = GI50 up to about 1.1 µM and inactive = higher.

Tests used:
Assay in all cases: inhibition of tumour cell growth, NCI panel, 48 h
786-0 = system: 786-0
A498 = system: A498
A549 = system: A549
ACHN = system: ACHN
CCRF-CEM = system: CCRF-CEM
COLO 205 = system: COLO 205
DU-145 = system: DU-145
EKVX = system: EKVX
HCT-116 = system: HCT-116
HCT-15 = system: HCT-15
HOP-62 = system: HOP-62
HT-29 = system: HT-29
Hs-578T = system: Hs-578T
IGROV-1 = system: IGROV-1
K562 = system: K562
KM12 = system: KM12
LOX IMVI = system: LOX IMVI
M14 = system: M14
MCF7 = system: MCF7
MDA-MB-231 = system: MDA-MB-231
MDA-MB-435 = system: MDA-MB-435
MDA-N = system: MDA-N
MOLT-4 = system: MOLT-4
Malme-3M = system: Malme-3M
NCI-H226 = system: NCI-H226
NCI-H23 = system: NCI-H23
NCI/ADR-RES = system: NCI/ADR-RES
OVCAR-3 = system: OVCAR-3
OVCAR-4 = system: OVCAR-4
OVCAR-5 = system: OVCAR-5
OVCAR-8 = system: OVCAR-8
PC-3 = system: PC-3
RPMI-8226 = system: RPMI-8226
SF-268 = system: SF-268
SF-295 = system: SF-295
SF-539 = system: SF-539
SK-MEL-28 = system: SK-MEL-28
SK-MEL-2 = system: SK-MEL-2
SK-MEL-5 = system: SK-MEL-5
SK-OV-3 = system: SK-OV-3
SN12C = system: SN12C
SNB-19 = system: SNB-19
SNB-75 = system: SNB-75
SR = system: SR
SW-620 = system: SW-620
TK-10 = system: TK-10
U-251 = system: U-251
UACC-257 = system: UACC-257
UACC-62 = system: UACC-62
UO-31 = system: UO-31
CAKI-1 = system: CAKI-1
HL-60 = system: HL-60
HOP-92 = system: HOP-92
NCI-H460 = system: NCI-H460
NCI-H522 = system: NCI-H522
RXF 393 = system: RXF 393

Measured: GI50

COc1cc(OC)c2c(C)cc(=O)oc2c1
56.5 µM: HCT-15
inactive: 786-0 52.6 µM | A498 20.6 µM | A549 55.7 µM | ACHN 36.7 µM | CCRF-CEM > 100 µM | COLO 205 54.1 µM | DU-145 52.7 µM | EKVX 50.5 µM | HCT-116 43.1 µM | HOP-62 > 100 µM | HT-29 43.4 µM | Hs-578T 61.1 µM | IGROV-1 35.2 µM | K562 45 µM | KM12 54.2 µM | LOX IMVI 47.1 µM | M14 > 100 µM | MCF7 85.9 µM | MDA-MB-231 70.3 µM | MDA-MB-435 88.9 µM | MDA-N > 100 µM | MOLT-4 82.6 µM | Malme-3M 53 µM | NCI-H226 41.5 µM | NCI-H23 64.4 µM | NCI/ADR-RES 63.8 µM | OVCAR-3 > 100 µM | OVCAR-4 > 100 µM | OVCAR-5 > 100 µM | OVCAR-8 55.7 µM | PC-3 > 100 µM | RPMI-8226 44.6 µM | SF-268 47.9 µM | SF-295 75.9 µM | SF-539 34.8 µM | SK-MEL-28 > 100 µM | SK-MEL-2 > 100 µM | SK-MEL-5 > 100 µM | SK-OV-3 > 100 µM | SN12C 72.6 µM | SNB-19 > 100 µM | SNB-75 25.9 µM | SR 45.1 µM | SW-620 54.5 µM | TK-10 66.4 µM | U-251 84.7 µM | UACC-257 93.8 µM | UACC-62 96.4 µM | UO-31 20.3 µM

CN(CC(=O)O)c1ncc2c(n1)-c1ccccc1OC2c1ccccc1 (stereo not drawn)
inactive: A549 76.4 µM | ACHN > 100 µM | CAKI-1 > 100 µM | CCRF-CEM 44.3 µM | COLO 205 > 100 µM | DU-145 > 100 µM | EKVX > 100 µM | HL-60 33.2 µM | HOP-62 > 100 µM | HOP-92 > 100 µM | HT-29 > 100 µM | Hs-578T > 100 µM | IGROV-1 > 100 µM | K562 71.8 µM | KM12 79.6 µM | LOX IMVI > 100 µM | M14 > 100 µM | MCF7 > 100 µM | MDA-MB-231 > 100 µM | MDA-MB-435 > 100 µM | MDA-N > 100 µM | MOLT-4 29.2 µM | Malme-3M > 100 µM | NCI-H226 86.7 µM | NCI-H23 51.6 µM | NCI-H460 89.7 µM | NCI-H522 > 100 µM | NCI/ADR-RES > 100 µM | OVCAR-3 > 100 µM | OVCAR-4 > 100 µM | OVCAR-5 > 100 µM | OVCAR-8 > 100 µM | PC-3 61.1 µM | RPMI-8226 38.1 µM | RXF 393 56.1 µM | SF-268 > 100 µM | SF-295 > 100 µM | SF-539 > 100 µM | SK-MEL-28 > 100 µM | SK-MEL-2 87.7 µM | SK-MEL-5 > 100 µM | SK-OV-3 > 100 µM | SN12C > 100 µM | SNB-19 > 100 µM | SNB-75 43.6 µM | SR 37 µM | SW-620 > 100 µM | TK-10 > 100 µM | U-251 > 100 µM | UACC-257 > 100 µM | UACC-62 92.5 µM | UO-31 38 µM
> 100 µM: HCT-15
